# From US11457628B2, “Substituted pyrimidine compound and preparation method and use thereof” (SHENYANG SINOCHEM AGROCHEMICALS R&D CO., LTD., priority 2017, dated 2022)
# Columns and labels:
# cucumber anthrax = type: in vivo; details: dose 400 ppm
# green peach aphid = test: activity against the green peach aphid, airbrush spray method; type: in vivo; details: 100 mg/L, after 48 hours
# rice blast = test: microbe, parasite or virus in culture; type: cell-based; details: Pyricularia oryzae, 24 h, read-out: inhibition activity for rice blast
# wheat powdery mildew = test: in vivo protective activity, pot determination, wheat powdery mildew
# corn rust = test: in vivo protective activity, pot determination, corn rust
# cucumber downy mildew = test: in vivo protective activity, pot determination, cucumber downy mildew
# Tetranychus cinnabarinus = test: activity against Tetranychus cinnabarinus, airbrush spray method; details: 600 mg/L, after 72 hours
smiles,measurement,setting,value
CCc1ncnc(NCCOc2nn(C)c(-c3ccc(Cl)cc3)c2C)c1Cl [Compound 11-1-19],protective effect for the melon anthrax / cucumber anthrax,cucumber anthrax,100%
Cc1c(OCC(C)Nc2ncnc3ccccc23)nn(C)c1-c1ccccc1 (centres unmarked) [Compound 19-4-1],protective effect for the melon anthrax / cucumber anthrax,cucumber anthrax,100%
Cc1cc(N(C)Cc2cnn(-c3ccccc3)c2)nc(C(C)C)n1 [CK4],Lethality to Green Peach Aphid (%),green peach aphid,0%
same,inhibition at 2.8 ppm,rice blast,0%
same,inhibition at 8.3 ppm,rice blast,0%
same,inhibition at 25 ppm,rice blast,0%
same,"Protective Activity (%), wheat powdery mildew",wheat powdery mildew; 400 mg/L,0%
same,"Protective Activity (%), corn rust",corn rust; 6.25 mg/L,0%
same,"Protective Activity (%), corn rust",corn rust; 25 mg/L,0%
same,"Protective Activity (%), corn rust",corn rust; 100 mg/L,0%
same,"Protective Activity (%), corn rust",corn rust; 400 mg/L,40%
same,"Protective Activity (%), cucumber downy mildew",cucumber downy mildew; 50 mg/L,0%
same,"Protective Activity (%), cucumber downy mildew",cucumber downy mildew; 100 mg/L,40%
same,"Protective Activity (%), cucumber downy mildew",cucumber downy mildew; 400 mg/L,100%
same,protective effect for the melon anthrax / cucumber anthrax,cucumber anthrax,0%
same,Lethality to Tetranychus Cinnabarinus (%),Tetranychus cinnabarinus,59%
Cc1c(OCCCNc2ncnc(C(F)F)c2Cl)nn(C)c1-c1ccccc1 [Compound 12-3-1],inhibition at 2.8 ppm,rice blast,> 80%
same,inhibition at 8.3 ppm,rice blast,> 80%
same,inhibition at 25 ppm,rice blast,> 80%
Cc1c(OCC(C)Nc2ncnc3scc(Cl)c23)nn(C)c1-c1ccccc1 (centres unmarked) [Compound 21-4-1],protective effect for the melon anthrax / cucumber anthrax,cucumber anthrax,100%
Cc1c(OCCNc2ncnc(C(F)F)c2Cl)nn(C)c1-c1ccc(Cl)cc1 [Compound 12-1-19],protective effect for control of wheat powdery mildew,wheat powdery mildew; dose 6.25 ppm,more than 80%
same,protective effect for the melon anthrax / cucumber anthrax,cucumber anthrax,100%
CCc1ncnc(OCCOc2nn(C)c(-c3ccccc3)c2C)c1Cl [Compound 26-1-1],protective effect for the melon anthrax / cucumber anthrax,cucumber anthrax,100%
CCc1ncnc(NCc2cnn(-c3ccccc3)c2C(F)(F)F)c1Cl [CK2],inhibition at 2.8 ppm,rice blast,0%
same,inhibition at 8.3 ppm,rice blast,0%
same,inhibition at 25 ppm,rice blast,0%
same,"Protective Activity (%), wheat powdery mildew",wheat powdery mildew; 6.25 mg/L,0%
same,"Protective Activity (%), wheat powdery mildew",wheat powdery mildew; 25 mg/L,20%
same,"Protective Activity (%), wheat powdery mildew",wheat powdery mildew; 100 mg/L,50%
same,"Protective Activity (%), wheat powdery mildew",wheat powdery mildew; 400 mg/L,100%
same,"Protective Activity (%), cucumber downy mildew",cucumber downy mildew; 25 mg/L,0%
same,"Protective Activity (%), cucumber downy mildew",cucumber downy mildew; 50 mg/L,20%
same,"Protective Activity (%), cucumber downy mildew",cucumber downy mildew; 100 mg/L,75%
same,"Protective Activity (%), cucumber downy mildew",cucumber downy mildew; 400 mg/L,100%
Cn1nc(OCCNc2ncnc3scc(Cl)c23)cc1-c1ccc(Cl)cc1Cl [Compound 21-21],protective effect for the melon anthrax / cucumber anthrax,cucumber anthrax,100%
Cc1c(OCCNc2ncnc3ccccc23)nn(C)c1-c1ccc(F)cc1 [Compound 19-1-4],protective effect for the melon anthrax / cucumber anthrax,cucumber anthrax,100%
Cc1c(OCCNc2ncnc3scc(Cl)c23)nn(C)c1-c1ccc(F)cc1 [Compound 21-1-4],protective effect for the melon anthrax / cucumber anthrax,cucumber anthrax,100%
Cc1ncnc(NCCOc2cc(-c3ccc(Cl)cc3Cl)n(C)n2)c1Cl [Compound 10-21],protective effect for the melon anthrax / cucumber anthrax,cucumber anthrax,100%
Cc1nc(C)c(C)c(N(C)Cc2cnn(-c3ccccc3)c2)n1 [CK3],Lethality to Green Peach Aphid (%),green peach aphid,30%
same,inhibition at 2.8 ppm,rice blast,0%
same,inhibition at 8.3 ppm,rice blast,0%
same,inhibition at 25 ppm,rice blast,0%
same,"Protective Activity (%), wheat powdery mildew",wheat powdery mildew; 400 mg/L,0%
same,"Protective Activity (%), corn rust",corn rust; 6.25 mg/L,0%
same,"Protective Activity (%), corn rust",corn rust; 25 mg/L,0%
same,"Protective Activity (%), corn rust",corn rust; 100 mg/L,20%
same,"Protective Activity (%), corn rust",corn rust; 400 mg/L,60%
same,"Protective Activity (%), cucumber downy mildew",cucumber downy mildew; 50 mg/L,0%
same,"Protective Activity (%), cucumber downy mildew",cucumber downy mildew; 100 mg/L,30%
same,"Protective Activity (%), cucumber downy mildew",cucumber downy mildew; 400 mg/L,100%
same,protective effect for the melon anthrax / cucumber anthrax,cucumber anthrax,0%
same,Lethality to Tetranychus Cinnabarinus (%),Tetranychus cinnabarinus,56%
Cn1nc(OCCNc2ncnc3ccccc23)cc1-c1ccc(Br)cc1 [Compound 19-34],inhibition at 25 ppm,rice blast,> 80%
CCc1ncnc(NCc2cnn(-c3ccccc3)c2C)c1Cl [CK1],Lethality to Green Peach Aphid (%),green peach aphid,0%
same,inhibition at 2.8 ppm,rice blast,0%
same,inhibition at 8.3 ppm,rice blast,0%
same,inhibition at 25 ppm,rice blast,0%
same,"Protective Activity (%), cucumber downy mildew",cucumber downy mildew; 25 mg/L,0%
same,"Protective Activity (%), cucumber downy mildew",cucumber downy mildew; 50 mg/L,20%
same,"Protective Activity (%), cucumber downy mildew",cucumber downy mildew; 100 mg/L,95%
same,"Protective Activity (%), cucumber downy mildew",cucumber downy mildew; 400 mg/L,100%
Cc1nc(Cl)cc(N(C)Cc2c(C)nn(-c3ccccc3)c2C)n1 [CK5],Lethality to Green Peach Aphid (%),green peach aphid,22%
same,inhibition at 2.8 ppm,rice blast,0%
same,inhibition at 8.3 ppm,rice blast,0%
same,inhibition at 25 ppm,rice blast,0%
same,"Protective Activity (%), wheat powdery mildew",wheat powdery mildew; 400 mg/L,0%
same,"Protective Activity (%), corn rust",corn rust; 6.25 mg/L,20%
same,"Protective Activity (%), corn rust",corn rust; 25 mg/L,60%
same,"Protective Activity (%), corn rust",corn rust; 100 mg/L,70%
same,"Protective Activity (%), corn rust",corn rust; 400 mg/L,98%
same,"Protective Activity (%), cucumber downy mildew",cucumber downy mildew; 400 mg/L,85%
same,protective effect for the melon anthrax / cucumber anthrax,cucumber anthrax,0%
same,Lethality to Tetranychus Cinnabarinus (%),Tetranychus cinnabarinus,58%
Cc1c(OCCNc2ncnc(C(F)F)c2Cl)nn(C)c1-c1ccccc1 [Compound 12-1-1],protective effect for the melon anthrax / cucumber anthrax,cucumber anthrax,100%
